From paper PMC5201303, “Comparison of Enzymatic Traits between Native and Recombinant Glycine Sarcosine N-Methyltransferase from Methanohalophilus portucalensis FDF1^T” (PLoS ONE, 2016)

What was measured:
[1] = biological target: T1, native GSMT (glycine sarcosine N-methyltransferase) (Methanohalophilus portucalensis, UniProt F6KV61); assay: radiometric [methyl-3H]-SAM methyl transfer, charcoal separation; format: biochemical; conditions: read-out: I50
T1 construct: monomer and dimer fractions pooled
T1 sequence (F6KV61 1-263): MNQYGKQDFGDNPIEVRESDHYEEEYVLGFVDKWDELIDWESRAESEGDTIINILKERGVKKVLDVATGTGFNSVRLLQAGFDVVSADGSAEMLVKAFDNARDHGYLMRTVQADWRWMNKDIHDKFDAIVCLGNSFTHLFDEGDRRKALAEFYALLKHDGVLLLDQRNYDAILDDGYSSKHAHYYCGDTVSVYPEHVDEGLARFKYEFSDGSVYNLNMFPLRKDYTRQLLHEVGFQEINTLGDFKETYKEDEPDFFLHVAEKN

[2] = biological target: T1, native GSMT (glycine sarcosine N-methyltransferase); assay: as above; format: biochemical

IC50 [1] [µM] | remaining activity at 1 M [2] [%] | SMILES
50 | – | Nc1ncnc2c1ncn2[C@@H]1O[C@H](CSCC[C@H](N)C(=O)O)[C@@H](O)[C@H]1O [SAH, S-adenosylhomocysteine]
– | 43 | C[N+](C)(C)CC(=O)[O-] [betaine]
